Experiments:
[1] = tested on: Raji (Burkitt's) lymphoma cells; experiment: MTT assay for 4-day viability of Raji (Burkitt's) lymphoma cells; type: cell-based; conditions: Homo sapiens, 96 h, Raji cells (highly express MCT1), estimated values, read-out: approximate potency (EC50 nM)
From the text: Specific Examples of compounds of the invention, with estimated EC50 values determined using an MTT assay for 4-day viability of Raji (Burkitt's) lymphoma cells, a cell line known to highly express MCT1 and to be sensitive to small molecule MCT inhibitors,^4 are shown in Table 3. Assay protocols follow those described in the literature.^4 Other assays that are not described here but that are standard in the field, such as an assay for competitive inhibition of transport of radiolabeled lactic acid, an MCT substrate, may also be useful in establishing mechanism of action of these compounds.

[2] = tested on: Raji Burkitt lymphoma cells; experiment: Xenograft of tumors derived from Raji Burkitt lymphoma cells in nude mice; type: in vivo; conditions: versus vehicle
Method: (§1) The in vivo effects of a few selected agents have been evaluated in mouse xenograft models and found to be effective. Protocols follow those described in the literature.^4
(§2) Mice were transplanted with cultured tumor cells and after an incubation period (typically 8-12 days), mice were left untreated or were treated daily with a 30 mg/kg dose of the test compound. Tumor volumes were measured with calipers over […] of treatment. Tumors were excised and weighed at the end of treatment. In some experiments the mice were co-treated daily with a 30 mg/kg dose of the test compound and 5 mg/kg of metformin.
In a separate experiment, this same compound was used in a study using implanted tumors derived from Raji Burkitt lymphoma cells, implanted into nude mice and treated as before with vehicle, with SR-11431, or with SR-11431 plus metformin.

T47D tumor cells = experiment: Mouse xenograft experiment using T47D tumor cells; type: in vivo, mice; conditions: 30 mg/kg daily
Method: as §1, §2

CC(C)Cn1c(=O)n(C)c(=O)c2nc(CCCCCO)c(COc3cccc4cnccc34)nc21 [Example 3, 6-(5-hydroxypentyl)-1-isobutyl-7-((isoquinolin-5-yloxy)methyl)-3-methylpteridine-2,4(1H,3H)-dione]
EC50 [1]: < 50 nM
tumor volume over time ([2]; 30 mg/kg daily (co-treatment: plus 5 mg/kg metformin), 30-day time course): Reduction of tumor volume over time
final tumor weight ([2]; end of treatment (day 32)): not significantly changed
tumor volume (T47D tumor cells; versus vehicle): significant reduction of tumor volume
final tumor mass (T47D tumor cells; versus vehicle treated animals, end of treatment): reduction in final tumor mass

Reference: patent US10874675B2, “Pteridine dione monocarboxylate transporter inhibitors” (The Scripps Research Institute, priority 2015, dated 2020)
